Data set [1] relates to Leishmania mexicana. In words: Antileishmanial activity against axenic amastigote form of Leishmania mexicana MNYC/BZ/62/M379 assessed as parasite viability measured after 1 hr by alamarBlue staining based fluorescence analysis. The note with it: MNYC/BZ/62/M379, 1 h, read-out: ED50 (the source's name). It is filed as functional. In general terms: The colour change of resazurin is a common sign of viable cells or microbes.

Data set [2] relates to Leishmania mexicana. In words: Antileishmanial activity against Leishmania mexicana MNYC/BZ/62/M379 promastigotes assessed as parasite viability measured after 1 hr by alamarBlue staining based fluorescence analysis. It is filed as functional. As to conditions: MNYC/BZ/62/M379, 1 h, read-out: ED50 (the source's name).
Data set [3] is described as follows: Cytotoxicity against mouse RAW264.7 cells measured after 24 hrs by alamarBlue staining based fluorescence analysis. It is filed as cell-based. As to conditions: read-out: ED50.
Data set [4] relates to Leishmania mexicana. In words: Antileishmanial activity against Leishmania mexicana MNYC/BZ/62/M379 amastigotes infected in mouse RAW264.7 cells assessed as parasite viability measured after 24 hrs by alamarBlue staining based fluorescence analysis. It is filed as functional.

Non-standard residues stand in square brackets, D forms with d. Residues, ends and D or L forms follow the SMILES beside them. Gly(N-2-aminoethyl) = NCCNCC(=O)O; N(isopentyl)Gly = CC(C)CCNCC(=O)O; Nspe = C[C@H](NCC(=O)O)c1ccccc1; Nphe = O=C(O)CNCc1ccccc1; Nleu = CC(C)CNCC(=O)O; NPrGly = CCCNCC(=O)O; Nlys = NCCCCNCC(=O)O Where only a bound is given, the exact number is not on record here.

On to `NCCNCC(=O)N(CC(=O)N(CC(=O)N(CCN)CC(=O)N(CC(=O)N(CC(=O)N(CCN)CC(=O)N(CC(=O)N(CC(=O)N(CCN)CC(=O)N(CC(=O)N(CC(N)=O)Cc1ccccc1)Cc1ccccc1)Cc1ccccc1)Cc1ccccc1)Cc1ccccc1)Cc1ccccc1)Cc1ccccc1)Cc1ccccc1` (H-[Gly(N-2-aminoethyl)][Nphe][Nphe][Gly(N-2-aminoethyl)][Nphe][Nphe][Gly(N-2-aminoethyl)][Nphe][Nphe][Gly(N-2-aminoethyl)][Nphe][Nphe]-NH2), for which the EC50 was more than 100 µM in the data set with Leishmania mexicana [1] and 21 µM with Leishmania mexicana [2]. In addition, the CC50 at 24 h in data set [3] is more than 5 µM. Further, in the data set on Leishmania mexicana [4], the ED50 was more than 5 µM.
With `CC(C)CCN(CC(=O)N(CC(N)=O)[C@@H](C)c1ccccc1)C(=O)CN(CCCCN)C(=O)CN(C(=O)CN(CCC(C)C)C(=O)CNCCCCN)[C@@H](C)c1ccccc1` (H-[Nlys][N(isopentyl)Gly][Nspe][Nlys][N(isopentyl)Gly][Nspe]-NH2), the EC50 in the data set on Leishmania mexicana [1] and in the data set with Leishmania mexicana [2] was more than 100 µM in each case.
For the molecule `CCCN(CC(=O)N(CC(N)=O)[C@@H](C)c1ccccc1)C(=O)CN(CCCCN)C(=O)CN(C(=O)CN(CCC)C(=O)CNCCCCN)[C@@H](C)c1ccccc1` (H-[Nlys][NPrGly][Nspe][Nlys][NPrGly][Nspe]-NH2), the EC50 in the data set with Leishmania mexicana [1] and in the data set with Leishmania mexicana [2] was more than 100 µM throughout.
`CCCN(CC(=O)N(CC(N)=O)[C@@H](C)c1ccccc1)C(=O)CN(CCCCN)C(=O)CN(C(=O)CN(CCC)C(=O)CN(CCCCN)C(=O)CN(C(=O)CN(CCC)C(=O)CNCCCCN)[C@@H](C)c1ccccc1)[C@@H](C)c1ccccc1` (H-[Nlys][NPrGly][Nspe][Nlys][NPrGly][Nspe][Nlys][NPrGly][Nspe]-NH2): the EC50 in the data set on Leishmania mexicana [1] and in the data set with Leishmania mexicana [2] was more than 100 µM in each case.
Consider `CCCN(CC(=O)N(CC(N)=O)[C@@H](C)c1ccccc1)C(=O)CN(CCCCN)C(=O)CN(C(=O)CN(CCC)C(=O)CN(CCCCN)C(=O)CN(C(=O)CN(CCC)C(=O)CN(CCCCN)C(=O)CN(C(=O)CN(CCC)C(=O)CNCCCCN)[C@@H](C)c1ccccc1)[C@@H](C)c1ccccc1)[C@@H](C)c1ccccc1` (H-[Nlys][NPrGly][Nspe][Nlys][NPrGly][Nspe][Nlys][NPrGly][Nspe][Nlys][NPrGly][Nspe]-NH2), for which the EC50 in the data set with Leishmania mexicana [1] and in the data set with Leishmania mexicana [2] was more than 100 µM each time.
As to `CC(C)CN(CC(=O)N(CC(N)=O)[C@@H](C)c1ccccc1)C(=O)CN(CCCCN)C(=O)CN(C(=O)CN(CC(C)C)C(=O)CNCCCCN)[C@@H](C)c1ccccc1` (H-[Nlys][Nleu][Nspe][Nlys][Nleu][Nspe]-NH2), the EC50 in the data set on Leishmania mexicana [1] and with Leishmania mexicana [2] was more than 100 µM throughout.
Take `CC(C)CN(CC(=O)N(CC(N)=O)[C@@H](C)c1ccccc1)C(=O)CN(CCCCN)C(=O)CN(C(=O)CN(CC(C)C)C(=O)CN(CCCCN)C(=O)CN(C(=O)CN(CC(C)C)C(=O)CNCCCCN)[C@@H](C)c1ccccc1)[C@@H](C)c1ccccc1` (H-[Nlys][Nleu][Nspe][Nlys][Nleu][Nspe][Nlys][Nleu][Nspe]-NH2): the EC50 in the data set with Leishmania mexicana [1] and in the data set with Leishmania mexicana [2] was more than 100 µM each time.
As for `CC(C)CN(CC(=O)N(CC(N)=O)[C@@H](C)c1ccccc1)C(=O)CN(CCCCN)C(=O)CN(C(=O)CN(CC(C)C)C(=O)CN(CCCCN)C(=O)CN(C(=O)CN(CC(C)C)C(=O)CN(CCCCN)C(=O)CN(C(=O)CN(CC(C)C)C(=O)CNCCCCN)[C@@H](C)c1ccccc1)[C@@H](C)c1ccccc1)[C@@H](C)c1ccccc1` (H-[Nlys][Nleu][Nspe][Nlys][Nleu][Nspe][Nlys][Nleu][Nspe][Nlys][Nleu][Nspe]-NH2), the EC50 in the data set on Leishmania mexicana [1] and in the data set on Leishmania mexicana [2] was more than 100 µM each time.
For the molecule `NCCCCNCC(=O)N(CC(=O)N(CC(=O)N(CCCCN)CC(=O)N(CC(=O)N(CC(N)=O)Cc1ccccc1)Cc1ccccc1)Cc1ccccc1)Cc1ccccc1` (H-[Nlys][Nphe][Nphe][Nlys][Nphe][Nphe]-NH2), the EC50 with Leishmania mexicana [1] and in the data set on Leishmania mexicana [2] was more than 100 µM each time.
Turning to `NCCCCNCC(=O)N(CC(=O)N(CC(=O)N(CCCCN)CC(=O)N(CC(=O)N(CC(=O)N(CCCCN)CC(=O)N(CC(=O)N(CC(=O)N(CCCCN)CC(=O)N(CC(=O)N(CC(N)=O)Cc1ccccc1)Cc1ccccc1)Cc1ccccc1)Cc1ccccc1)Cc1ccccc1)Cc1ccccc1)Cc1ccccc1)Cc1ccccc1` (H-[Nlys][Nphe][Nphe][Nlys][Nphe][Nphe][Nlys][Nphe][Nphe][Nlys][Nphe][Nphe]-NH2), the EC50 in the data set on Leishmania mexicana [1] was more than 100 µM; in the data set on Leishmania mexicana [2], 15 µM.
For `C[C@@H](c1ccccc1)N(CC(N)=O)C(=O)CN(C(=O)CN(CCCCN)C(=O)CN(C(=O)CN(C(=O)CNCCCCN)[C@@H](C)c1ccccc1)[C@@H](C)c1ccccc1)[C@@H](C)c1ccccc1` (H-[Nlys][Nspe][Nspe][Nlys][Nspe][Nspe]-NH2) the same measures were more than 100 µM and more than 100 µM.
In the same order, the values of `C[C@@H](c1ccccc1)N(CC(N)=O)C(=O)CN(C(=O)CN(CCCCN)C(=O)CN(C(=O)CN(C(=O)CN(CCCCN)C(=O)CN(C(=O)CN(C(=O)CN(CCCCN)C(=O)CN(C(=O)CN(C(=O)CNCCCCN)[C@@H](C)c1ccccc1)[C@@H](C)c1ccccc1)[C@@H](C)c1ccccc1)[C@@H](C)c1ccccc1)[C@@H](C)c1ccccc1)[C@@H](C)c1ccccc1)[C@@H](C)c1ccccc1` (H-[Nlys][Nspe][Nspe][Nlys][Nspe][Nspe][Nlys][Nspe][Nspe][Nlys][Nspe][Nspe]-NH2) are more than 100 µM and 8 µM.
In the same order, the values of `CC(c1ccccc1)N(CC(=O)N(CCCCN)CC(=O)N(CC(=O)N(CC(=O)N(CCCCN)CC(=O)N(CC(=O)N(CC(N)=O)[C@@H](C)c1ccccc1)Cc1ccc(F)cc1)C(C)c1ccccc1)Cc1ccc(F)cc1)C(=O)CN(Cc1ccc(F)cc1)C(=O)CNCCCCN` (single isomer, unassigned) are more than 100 µM and 13 µM.
Regarding `CC(C)CCN(CC(=O)N(CC(=O)N(CCCCN)CC(=O)N(CCC(C)C)CC(=O)N(CC(=O)N(CCCCN)CC(=O)N(CCC(C)C)CC(=O)N(CC(=O)N(CCCCN)CC(=O)N(CCC(C)C)CC(=O)N(CC(N)=O)[C@@H](C)c1ccccc1)C(C)c1ccccc1)C(C)c1ccccc1)C(C)c1ccccc1)C(=O)CNCCCCN` (single isomer, unassigned), the EC50 in the data set on Leishmania mexicana [1] is more than 100 µM; with Leishmania mexicana [2] it was 12 µM.
For `CC(C)CCN(CC(=O)N(CC(N)=O)C(C)c1ccccc1)C(=O)CN(CCCCN)C(=O)CN(C(=O)CN(CCC(C)C)C(=O)CN(CCCCN)C(=O)CN(C(=O)CN(CCC(C)C)C(=O)CNCCCCN)[C@@H](C)c1ccccc1)[C@@H](C)c1ccccc1` (single isomer, unassigned) the same measures were more than 100 µM and 52 µM.
In the same order, the values of `CCCCCN(CC(=O)N(CC(=O)N(CC(=O)N(CCCCN)CC(=O)N(CC(=O)N(CC(N)=O)[C@@H](C)c1ccccc1)[C@@H](C)c1ccccc1)C(C)c1ccccc1)[C@@H](C)c1ccccc1)C(=O)CN(C(=O)CN(C(=O)CN(CCCCN)C(=O)CN(C(=O)CN(C(=O)CNCCCCN)[C@@H](C)c1ccccc1)C(C)c1ccccc1)[C@@H](C)c1ccccc1)C(C)c1ccccc1` (single isomer, unassigned) are 15 µM and 10 µM.
In the same order, the values of `CC(c1ccccc1)N(CC(=O)N(CCCCN)CC(=O)N(CC(=O)N(CC(=O)N(CCCCN)CC(=O)N(CC(=O)N(CC(=O)N(CCCCN)CC(=O)N(CC(=O)N(CC(N)=O)[C@@H](C)c1ccccc1)Cc1ccc(F)cc1)C(C)c1ccccc1)Cc1ccc(F)cc1)C(C)c1ccccc1)Cc1ccc(F)cc1)C(=O)CN(Cc1ccc(F)cc1)C(=O)CNCCCCN` (single isomer, unassigned) are 27 µM and 8 µM.
For the molecule `CCCCCNCC(=O)N(CC(=O)N(CC(=O)N(CCCCN)CC(=O)N(CC(=O)N(CC(=O)N(CCCCC)CC(=O)N(CC(=O)N(CC(=O)N(CCCCN)CC(=O)N(CC(=O)N(CC(N)=O)[C@@H](C)c1ccccc1)[C@@H](C)c1ccccc1)C(C)c1ccccc1)[C@@H](C)c1ccccc1)C(C)c1ccccc1)[C@@H](C)c1ccccc1)C(C)c1ccccc1)[C@@H](C)c1ccccc1` (single isomer, unassigned), the values for the EC50 in the data set on Leishmania mexicana [1] and in the data set on Leishmania mexicana [2] were 17 µM and 10 µM, respectively.
For the molecule `CC(c1ccccc1)N(CC(=O)N(CCN)CC(=O)N(CC(=O)N(CC(=O)N(CCN)CC(=O)N(CC(=O)N(CC(N)=O)[C@@H](C)c1ccccc1)[C@@H](C)c1ccccc1)C(C)c1ccccc1)[C@@H](C)c1ccccc1)C(=O)CN(C(=O)CNCCN)C(C)c1ccccc1` (single isomer, unassigned), the EC50 with Leishmania mexicana [1] is more than 100 µM; in the data set with Leishmania mexicana [2], 10 µM.
For `CC(c1ccccc1)N(CC(=O)N(CCCCN)CC(=O)N(CC(=O)N(CC(=O)N(CCCCN)CC(=O)N(CC(=O)N(CC(N)=O)[C@@H](C)c1ccccc1)[C@@H](C)c1ccccc1)Cc1ccc(F)cc1)Cc1ccc(F)cc1)C(=O)CN(C(=O)CNCCCCN)[C@@H](C)c1ccccc1` (single isomer, unassigned) the same measures were more than 100 µM and 13 µM.
In the same order, the values of `CCCCCNCC(=O)N(CC(=O)N(CC(=O)N(CCCCN)CC(=O)N(CC(=O)N(CC(=O)N(CCCCN)CC(=O)N(CC(=O)N(CC(=O)N(CCCCN)CC(=O)N(CC(=O)N(CC(N)=O)[C@@H](C)c1ccccc1)[C@@H](C)c1ccccc1)C(C)c1ccccc1)[C@@H](C)c1ccccc1)[C@@H](C)c1ccccc1)[C@@H](C)c1ccccc1)C(C)c1ccccc1)[C@@H](C)c1ccccc1` (single isomer, unassigned) are 21 µM and 8 µM.
For `C[C@H](c1ccccc1)N(CC(N)=O)C(=O)CN(C(=O)CN(CCCCN)C(=O)CN(C(=O)CN(C(=O)CN(CCCCN)C(=O)CN(C(=O)CN(C(=O)CNCCCCN)[C@H](C)c1ccccc1)[C@@H](C)c1ccccc1)[C@H](C)c1ccccc1)[C@@H](C)c1ccccc1)[C@H](C)c1ccccc1` (stereo in doubt) the same measures were more than 100 µM and 15 µM.

These data come from ChEMBL document CHEMBL3817808, “Enlarging the chemical space of anti-leishmanials: a structureactivity relationship study of peptoids against Leishmania mexicana, a causative agent of cutaneous leishmaniasis” (Medchemcomm, 2016).
